# System: isolated rabbit gastric glands
# Test: Inhibiting effect in vitro on acid secretion in isolated rabbit gastric glands (14C-aminopyrine accumulation, histamine-stimulated)
# Type: cell-based
# Details: Oryctolagus cuniculus, 1 h; negative logarithm of concentration (in M) giving 50% inhibition of aminopyrine accumulation; glands incubated 60 min with 5x10^-5M histamine; read-out: Biological effect in glands pIC50 (converted)
# Procedure: Isolated rabbit gastric glands were prepared as described by Berglindh et al., Acta physiol. scand. 1976. 96. 150-159. This method involves vascular perfusion of the rabbit stomach via the gastric arteries, scraping and scissor mincing of the separated gastric mucosa and collagenase (0.1%, Type I, Sigma Chemicals, St. Louis, MO. USA) digestion at 37°C for 60-90 min. The glands are then harvested and filtered through nylon cloth to remove coarse fragments. The glands are thereafter incubated at 37°C in a medium containing NaCl 132.4 mM, KC1 5.4 mM, […], NaH2P04 1.0 mM, MgS04 1.2 mM, CaCl2 1.0 mM, glucose 10 mM, and 1 mg/ml rabbit albumine, pH 7.4.
# The acid secretion in the isolated gland preparation was recorded by measuring the uptake of ^14C-labelled aminopyrine into the glands as described by Berglindh et al., Acta physiol. scand. 1976. 97. 401-414. Accumulation of aminopyrine in the glands indicates gastric acid secretion within the glands. The standard medium contained 10^-6M ^14C-aminopyrine (Amersham, Great Britain). After the incubation period, the glands were centrifuged, the supernatant was removed and the glands dried, weighed and dissolved in Soluene -350 (Packard, IU. USA). Samples of the supernatant and glands were separately counted in a scintillation counter. The accumulation of ^14 C-labelled aminopyrine in the glands was calculated as detailed by Berglindh et al., Acta physiol. scand. 1976. 97. 403.
# Glands were incubated for 60 min. in the presence of 5x10^-5M histamine and the test compound to be studied. The free base of the test compound was dissolved in methanol. The final concentration of methanol was 1% in the incubation medium, having no influence on the aminopyrine accumulation ratio. For each test compound a complete dose-response curve was generated by testing doses in duplicate in the concentration range 10^-7M to 10-^4M.
row,Structure (SMILES),IC50
1,Cc1cc2nc([S+]([O-])Cc3cc(Oc4ccccc4)ccn3)[nH]c2cc1C (centres unmarked) [Example 12],316 nM
2,CCc1cnc(C[S+]([O-])c2nc3cc(OC)ccc3[nH]2)cc1Oc1ccccc1 (centres unmarked) [Example 6],316 nM
3,"CCc1cnc(C[S+]([O-])c2nc3cc(C)c(C)cc3[nH]2)cc1Oc1ccccc1 (centres unmarked) [Example 1, 5,6-dimethyl-2-[[(4-phenoxy-5--ethyl-2-pyridinyl)methyl]sulfinyl]-1H-benzimidazole]",1000 nM
4,Cc1cc2nc([S+]([O-])Cc3cc(-c4ccccc4)ccn3)[nH]c2cc1C (centres unmarked) [Example 24],7940 nM
5,COc1ccc2[nH]c([S+]([O-])Cc3cc(-c4ccccc4)ccn3)nc2c1 (centres unmarked) [Example 8],2510 nM
6,"COc1ccc2[nH]c([S+]([O-])Cc3cc(Oc4ccc(C)cc4)ccn3)nc2c1 (centres unmarked) [Example 3, 5-methoxy-2-[[[4-(4-methylphenoxy)--2-pyridinyl]methyl]sulfinyl]-1H-benzimidazole]",794 nM
7,COc1ccc2[nH]c([S+]([O-])Cc3cc(Oc4ccccc4)ccn3)nc2c1 (centres unmarked) [Example 10],1260 nM
8,COc1ccc2[nH]c([S+]([O-])Cc3cc(OCc4ccccc4)c(C)cn3)nc2c1 (centres unmarked) [Example 22],79.4 nM
9,CCc1cnc(C[S+]([O-])c2nc3cc(OC)ccc3[nH]2)cc1OCc1ccccc1 (centres unmarked) [Example 26],794 nM
10,COc1ccc2[nH]c([S+]([O-])Cc3nccc(Oc4ccc(C)cc4)c3C)nc2c1 (centres unmarked) [Example 16],631 nM
11,COc1ccc2[nH]c([S+]([O-])Cc3cc(Oc4ccc(C)cc4)c(C)cn3)nc2c1 (centres unmarked) [Example 18],631 nM

# Source: EP0173664A2, “Biologically active benzimidazole compounds and process for their preparation” (priority 1984, dated 1986)
